Data on 28 compounds can be found in US6150385A, “1,3,4-thiadiazoles useful for the treatment of CMV infections” (Pharmacia & Upjohn Company, priority 1999, dated 2000).

Each structure is given as a SMILES string.

In the experiment the target is T1, HCMV polymerase (Human cytomegalovirus, UniProt P08546).
T1 construct: made in house; host or cells: SF-9 insect cells infected with recombinant baculovirus
T1 sequence (P08546 whole entry): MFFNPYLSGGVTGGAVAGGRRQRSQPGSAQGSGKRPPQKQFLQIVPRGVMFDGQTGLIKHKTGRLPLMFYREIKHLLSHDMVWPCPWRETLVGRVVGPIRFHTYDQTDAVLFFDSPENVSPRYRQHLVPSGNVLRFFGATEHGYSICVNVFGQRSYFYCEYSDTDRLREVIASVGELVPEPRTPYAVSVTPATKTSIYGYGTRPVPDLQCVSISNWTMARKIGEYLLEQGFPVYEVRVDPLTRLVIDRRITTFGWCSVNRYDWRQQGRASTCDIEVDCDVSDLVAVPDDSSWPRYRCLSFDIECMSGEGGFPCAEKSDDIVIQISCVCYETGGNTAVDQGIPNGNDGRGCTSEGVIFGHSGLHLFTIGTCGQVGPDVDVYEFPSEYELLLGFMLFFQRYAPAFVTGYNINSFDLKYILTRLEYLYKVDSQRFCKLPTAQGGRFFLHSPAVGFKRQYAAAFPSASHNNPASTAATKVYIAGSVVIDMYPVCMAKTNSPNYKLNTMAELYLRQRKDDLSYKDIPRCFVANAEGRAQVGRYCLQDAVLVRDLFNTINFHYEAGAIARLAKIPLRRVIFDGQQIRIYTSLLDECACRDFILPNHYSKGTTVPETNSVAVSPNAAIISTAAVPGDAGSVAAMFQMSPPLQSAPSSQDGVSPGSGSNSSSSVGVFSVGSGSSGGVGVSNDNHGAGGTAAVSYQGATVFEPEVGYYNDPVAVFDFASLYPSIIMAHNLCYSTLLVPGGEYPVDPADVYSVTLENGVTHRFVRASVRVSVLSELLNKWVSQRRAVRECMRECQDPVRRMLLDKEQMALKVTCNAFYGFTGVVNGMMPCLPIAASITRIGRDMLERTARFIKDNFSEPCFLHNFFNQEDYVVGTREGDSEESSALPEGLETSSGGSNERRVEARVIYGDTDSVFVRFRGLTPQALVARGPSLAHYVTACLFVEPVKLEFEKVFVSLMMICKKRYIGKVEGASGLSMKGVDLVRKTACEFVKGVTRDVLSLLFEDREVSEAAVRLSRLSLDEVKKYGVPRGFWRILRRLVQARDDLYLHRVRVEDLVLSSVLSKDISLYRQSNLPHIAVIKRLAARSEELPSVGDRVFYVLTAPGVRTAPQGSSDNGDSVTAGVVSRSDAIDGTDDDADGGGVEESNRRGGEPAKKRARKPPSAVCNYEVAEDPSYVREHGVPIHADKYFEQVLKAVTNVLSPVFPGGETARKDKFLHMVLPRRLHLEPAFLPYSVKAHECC
The experiment can be described thus: HCMV polymerase assay (scintillation proximity assay). Type of experiment: biochemical. The note with it: percentage of inhibition at 25 μM concentration in CMV polymerase assay. The procedure, abridged: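 Baculovirus/SF-9-expressed HCMV polymerase in 5.4 mM HEPES pH 7.5, 11.7 mM KCl, 4.5 mM MgCl2, 0.36 mg/ml BSA, 90 nM 3H-dTTP, with or without 2 mM CHAPS. Started with 6 nM biotinylated poly(dA)-oligo(dT), 30 min at 25 or 37 °C, EDTA-stopped, read by streptavidin-SPA counting; % inhibition at 25 μM.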
In general terms: In a scintillation proximity assay essentially only radioactivity close to the scintillant gives light.
Regarding `O=C(Nc1nnc(NC2CCCc3ccccc32)s1)c1ccc([N+](=O)[O-])o1` (stereo not shown) [compound 192, 5-nitro-N-[5-(1,2,3,4-tetrahydro-1-naphthalenylamino)-1,3,4-thiadiazol-2-yl]-2-furamide], testing at 25 µM gave an inhibition of 47%. The same measure, in the same setting: the same measure for `O=C(Nc1nnc(NCc2ccco2)s1)c1ccc(I)cc1` [compound 341, N-{5-[(2-furylmethyl)amino]-1,3,4-thiadiazol-2-yl}-4-iodobenzamide]: 31.3%; for `CCOc1ccc2ccccc2c1C(=O)Nc1nnc(NCCNc2ccccc2)s1` [compound 69, N-{5-[(2-anilinoethyl)amino]-1,3,4-thiadiazol-2-yl}-2-ethoxy-1-naphthamide]: 70.6%; for `O=C(Nc1nnc(NCc2cccnc2)s1)c1c(Cl)cccc1Cl` [compound 156, 2,6-dichloro-N-{5-[(3-pyridinylmethyl)amino]-1,3,4-thiadiazol-2-yl}benzamide]: 53.2%. The same measure, in the same setting: the same measure for `CCCCCCCCCCCNc1nnc(NC(=O)c2c(Cl)cccc2Cl)s1` [compound 410, 2,6-dichloro-N-[5-(undecylamino)-1,3,4-thiadiazol-2-yl]benzamide]: 24.9%.

For the compound `CCCCCCCC/C=C/CCCCCCCC(=O)Nc1nnc(NCC2CC2)s1` [compound 113, (E)-N-{5-[(cyclopropylmethyl)amino]-1,3,4-thiadiazol-2-yl}-9-octadecenamide], the inhibition (commonly the percentage by which the read-out fell short of the control) at 25 µM was found to be 62.2%. Turning to `CCCCCCCC/C=C/CCCCCCCC(=O)Nc1nnc(NCc2ccc(F)cc2)s1` [compound 48, (E)-N-{5-[(4-fluorobenzyl)amino]-1,3,4-thiadiazol-2-yl}-9-octadecenamide], the inhibition at 25 µM is 81.5%. On the same count and under the same terms, the same measure for `O=C(/C=C/c1ccccc1Cl)Nc1nnc(NCCCCc2ccccc2)s1` [compound 357, (E)-3-(2-chlorophenyl)-N-{5-[(4-phenylbutyl)amino]-1,3,4-thiadiazol-2-yl}-2-propenamide]: 29.4%; for `CC1(C)C2CC[C@@H](CNc3nnc(NC(=O)c4ccc([N+](=O)[O-])o4)s3)C1C2` (stereo partly drawn) [compound 209, N-[5-({[(2R)-6,6-dimethylbicyclo[3.1.1]hept-2-yl]methyl}amino)-1,3,4-thiadiazol-2-yl]-5-nitro-2-furamide]: 44.7%. On the same count and under the same terms, the same measure for `CCOc1ccc2ccccc2c1C(=O)Nc1nnc(NCCc2ccccc2)s1` [compound 270, 2-ethoxy-N-[5-(phenethylamino)-1,3,4-thiadiazol-2-yl]-1-naphthamide]: 38.4%; for `O=C(Nc1nnc(NCCc2cccs2)s1)c1cccc([N+](=O)[O-])c1` [compound 337, 3-nitro-N-(5-{[2-(2-thienyl)ethyl]amino}-1,3,4-thiadiazol-2-yl)benzamide]: 31.6%. Consider `O=C(Nc1nnc(NCCc2c[nH]c3ccccc23)s1)c1ccc2c(c1)C(=O)OC2=O` [compound 10, N-(5-{[2-(1H-indol-3-yl)ethyl]amino}-1,3,4-thiadiazol-2-yl)-1,3-dioxo-1,3-dihydro-2-benzofuran-5-carboxamide], for which the inhibition at 25 µM turned out to be 99.7%.

With `O=C(Nc1nnc(NCCCN2CCCC2=O)s1)c1cccc([N+](=O)[O-])c1` [compound 135, 3-nitro-N-(5-{[3-(2-oxo-1-pyrrolidinyl)propyl]amino}-1,3,4-thiadiazol-2-yl)benzamide], the inhibition at 25 µM was 56.6%. `O=C(/C=C/c1ccccc1Cl)Nc1nnc(NCCc2cccs2)s1` [compound 185, (E)-3-(2-chlorophenyl)-N-(5-{[2-(2-thienyl)ethyl]amino}-1,3,4-thiadiazol-2-yl)-2-propenamide] yielded an inhibition at 25 µM of 47.6%. As to `O=C(Nc1nnc(NCCc2c[nH]cn2)s1)c1ccc(I)cc1` [compound 454, N-(5-{[2-(1H-imidazol-4-yl)ethyl]amino}-1,3,4-thiadiazol-2-yl)-4-iodobenzamide], the inhibition at 25 µM is 21.2%. On the same count and under the same terms, the same measure for `O=C(Nc1nnc(NCCc2c[nH]cn2)s1)c1c(Cl)cccc1Cl` [compound 448, 2,6-dichloro-N-(5-{[2-(1H-imidazol-4-yl)ethyl]amino}-1,3,4-thiadiazol-2-yl)benzamide]: 21.6%; for `O=C(/C=C/c1ccccc1Cl)Nc1nnc(NCc2ccncc2)s1` [compound 352, (E)-3-(2-chlorophenyl)-N-[5-[(4-pyridinylmethyl)amino]-1,3,4-thiadiazol-2-yl}-2-propenamide]: 30.2%. In the case of `O=C(Nc1nnc(NCCCN2CCCC2=O)s1)c1ccc(S(=O)(=O)F)cc1` [compound 371, 4-{[(5-{[3-(2-oxo-1-pyrrolidinyl)propyl]amino}-1,3,4-thiadiazol-2-yl)amino]carbonyl}benzenesulfonyl fluoride], the “% Inhib” value is listed as 28.1%. For `COc1ccc(CNc2nnc(NC(=O)c3cccc([N+](=O)[O-])c3)s2)cc1OC` [compound 436, N-{5-[(3,4-dimethoxybenzyl)amino]-1,3,4-thiadiazol-2-yl}-3-nitrobenzamide], at 25 µM the inhibition was 22.8%. The same measure, in the same setting: the same measure for `CC1(C)C2CC[C@@H](CNc3nnc(NC(=O)/C=C/c4ccccc4Cl)s3)C1C2` (stereo partly drawn) [compound 320, (E)-3-(2-chlorophenyl)-N-[5-({[(2R)-6,6-dimethylbicyclo[3.1.1]hept-2-yl]methyl}amino)-1,3,4-thiadiazol-2-yl]-2-propenamide]: 33.5%; for `O=C(/C=C/c1ccccc1)Nc1nnc(NCCCn2ccnc2)s1` [compound 133, (E)-N-(5-{[3-(1H-imidazol-1-yl)propyl]amino}-1,3,4-thiadiazol-2-yl)-3-phenyl-2-propenamide]: 57%; for `O=C(Nc1nnc(NC2CCCc3ccccc32)s1)c1ccc2c(c1)C(=O)OC2=O` (stereo not shown) [compound 21, 1,3-dioxo-N-[5-(1,2,3,4-tetrahydro-1-naphthalenylamino)-1,3,4-thiadiazol-2-yl]-1,3-dihydro-2-benzofuran-5-carboxamide]: 97.4%. In the case of `CCCCCCCC/C=C/CCCCCCCC(=O)Nc1nnc(NCC(CC)CCCC)s1` (stereo not shown) [compound 286, (E)-N-{5-[(2-ethylhexyl)amino]-1,3,4-thiadiazol-2-yl}-9-octadecenamide], the inhibition at 25 µM was determined as 36.3%. `O=C(Nc1nnc(NCCNc2ccccc2)s1)c1ccc([N+](=O)[O-])o1` [compound 264, N-{5-[(2-anilinoethyl)amino]-1,3,4-thiadiazol-2-yl}-5-nitro-2-furamide] yielded an inhibition at 25 µM of 39.2%. In turn, `O=C(Nc1nnc(NCc2cccc3ccccc23)s1)c1cc(F)cc(F)c1` [compound 362, 3,5-difluoro-N-{5-[(1-naphthylmethyl)amino]-1,3,4-thiadiazol-2-yl}benzamide] returned an inhibition at 25 µM of 28.8%.

`O=C(Nc1nnc(NCC2CCCO2)s1)c1cc2ccccc2s1` (stereo not shown) [compound 405, N-{5-[(tetrahydro-2-furanylmethyl)amino]-1,3,4-thiadiazol-2-yl}-1-benzothiophene-2-carboxamide] displayed an inhibition at 25 µM of 25%. Compound `Cc1ccc(C(=O)Nc2nnc(NCCc3ccc(S(N)(=O)=O)cc3)s2)cc1` [compound 230, N-(5-{[4-(aminosulfonyl)phenethyl]amino}-1,3,4-thiadiazol-2-yl)-4-methylbenzamide] returned an inhibition at 25 µM of 42.3%. `O=C(Nc1nnc(NCc2ccccn2)s1)c1c(Cl)cccc1Cl` [compound 241, 2,6-dichloro-N-{5-[(2-pyridinylmethyl)amino]-1,3,4-thiadiazol-2-yl}benzamide] came in with an inhibition at 25 µM of 41.3%.
